Converted amounts (≈) assume the structure as drawn. The source made the active and inactive calls. No cut-off for these calls is given here.
How the values were obtained:
[1] = Cytotoxicity against HEK293 cells assessed as cell viability after 24 hrs incubation byCCK-8 assay; assay type: toxicity, cell-based; settings: human
Staphylococcus aureus [2] = test: Antibacterial activity against Staphylococcus aureus ATCC 29213 assessed as inhibition of visible growth measured after 18 to 24 hrs in presence of 175.5 ug/ml K+ by broth dilution method; assay type: functional; settings: time 18-24 hrs
Lipopolysaccharide (LPS) [3] = test: Displacement of BODIPY-TR-cadaverin from Escherichia coli lipopolysaccharide at MIC concentration incubated for 30 mins by fluorescence based analysis
Cell membrane [4] = test: Induction of membrane integrity disruption in Escherichia coli ATCC 25922 assessed as increase fluoresence intensity at 4 to 8 times of MIC measured for 60 mins by SYTOX Green uptake assay; assay type: subcellular
Staphylococcus aureus [5] = test: Antibacterial activity against methicillin-resistant Staphylococcus aureus N315 assessed as inhibition of visible growth measured after 18 to 24 hrs by broth dilution method; assay type: functional; settings: time 18-24 hrs
Staphylococcus aureus [6] = test: Antibacterial activity against methicillin-resistant Staphylococcus aureus NCTC 10442 assessed as inhibition of visible growth measured after 18 to 24 hrs in presence of 100 ug/ml Ca2+ by broth dilution method; assay type: functional; settings: time 18-24 hrs
[7] = Haemolytic activity in rabbit red blood cells incubated for 60 mins by k multi-mode reader relative to control; assay type: toxicity, cell-based, Oryctolagus cuniculus, Erythrocyte
[8] = Selectivity ratio, HC50 for hemolytic activity in rabbit RBC to MIC for antibacterial activity against Klebsiella pneumoniae ATCC 10031; assay type: toxicity; settings: rabbit red blood cells
Klebsiella pneumoniae [9] = test: Antibacterial activity against Klebsiella pneumoniae ATCC 10031 assessed as inhibition of visible growth measured after 18 to 24 hrs by broth dilution method; assay type: functional; settings: time 18-24 hrs
Klebsiella pneumoniae [10] = test: Antibacterial activity against Klebsiella pneumoniae ATCC 10031 assessed as inhibition of visible growth measured after 18 to 24 hrs in presence of 3220 ug/ml Na+ by broth dilution method; assay type: functional; settings: time 18-24 hrs
Staphylococcus aureus [11] = test: Inhibition of biofilm formation Staphylococcus aureus ATCC 29213 assessed as decrease in biofilm formation at 0.10 ug/ml measured after 24 hrs by crystal violet staining assay; assay type: functional
Staphylococcus aureus [12] = test: Eradication of biofilm in Staphylococcus aureus ATCC 29213 assessed as biofilm viability at […] ug/ml measured after 24 hrs by crystal violet staining assay; assay type: functional; settings: dose […] microg/ml, 1.56 ug/mL
Lipopolysaccharide (LPS) [13] = test: Displacement of BODIPY-TR-cadaverin from Escherichia coli lipopolysaccharide at 8 times of MIC incubated for 30 mins by fluorescence based analysis
[14] = Toxicity in C57BL/6 mouse cornea assessed as toxicity at 5 mg/ml treated topically; assay type: tissue-based; settings: in vivo, topical_or_ocular, route top
Escherichia coli [15] = test: Antibacterial activity against Escherichia coli ATCC 25922 assessed as inhibition of visible growth measured after 18 to 24 hrs by broth dilution method; assay type: functional; settings: time 18-24 hrs
Staphylococcus aureus [16] = test: In vivo antibacterial activity against Staphylococcus aureus ATCC 29213 infected in C57BL/6 mouse keratitis model assessed as reduction in number of viable bacterial colonies in infected cornea at 5 mg/kg topically 4 times per day for 3 consecutive days; assay type: functional; settings: route top, time 3 day
Escherichia coli [17] = test: Eradication of biofilm in Escherichia coli ATCC 25922 assessed as biofilm viability at 12.5 ug/ml measured after 24 hrs by crystal violet staining assay; assay type: functional; settings: dose 12.5 µg/ml
Staphylococcus aureus [18] = test: Antibacterial activity against methicillin-resistant Staphylococcus aureus N315 assessed as inhibition of visible growth measured after 18 to 24 hrs in presence of 100 ug/ml Ca2+ by broth dilution method; assay type: functional; settings: time 18-24 hrs
[19] = Selectivity ratio, HC50 for hemolytic activity in rabbit RBC to MIC for antibacterial activity against Pseudomonas aeruginosa ATCC 9027; assay type: toxicity; settings: rabbit red blood cells
Klebsiella pneumoniae [20] = test: Antibacterial activity against Klebsiella pneumoniae ATCC 10031 assessed as inhibition of visible growth measured after 18 to 24 hrs in presence of 24.3 ug/ml Mg2+ by broth dilution method; assay type: functional; settings: time 18-24 hrs
Cell membrane [21] = test: Induction of membrane depolarization in Staphylococcus aureus ATCC 29213 assessed as increase in fluorescence intensity at 4 to 8 times MIC measured for 60 mins by DiSC3(5) dye based fluorescence method; assay type: subcellular
[22] = Selectivity ratio, HC50 for hemolytic activity in rabbit RBC to MIC for antibacterial activity against methicillin-resistant Staphylococcus aureus NCTC 10442; assay type: toxicity; settings: rabbit red blood cells
Cell membrane [23] = test: Induction of membrane depolarization in Escherichia coli ATCC 25922 assessed as increase in fluorescence intensity at 4 to 8 times MIC measured for 60 mins by DiSC3(5) dye based fluorescence method; assay type: subcellular
[24] = Selectivity ratio, HC50 for hemolytic activity in rabbit RBC to MIC for antibacterial activity against Acinetobacter baumannii ATCC 17978; assay type: toxicity; settings: rabbit red blood cells
Staphylococcus aureus [25] = test: Antibacterial activity against Staphylococcus aureus ATCC 29213 assessed as inhibition of visible growth measured after 18 to 24 hrs by broth dilution method; assay type: functional; settings: time 18-24 hrs
Staphylococcus aureus [26] = test: Antibacterial activity against methicillin-resistant Staphylococcus aureus NCTC 10442 assessed as inhibition of visible growth measured after 18 to 24 hrs by broth dilution method; assay type: functional; settings: time 18-24 hrs
Pseudomonas aeruginosa [27] = test: In vivo antibacterial activity against Pseudomonas aeruginosa ATCC 9027 infected in C57BL/6 mouse keratitis model assessed as reduction in number of viable bacterial colonies in infected cornea at 5 mg/kg topically 4 times per day for 3 consecutive days; assay type: functional; settings: route top, time 3 day
[28] = Cytotoxicity against mouse NCTC clone 929 cells assessed as cell viability after 24 hrs incubation byCCK-8 assay; assay type: toxicity, cell-based
Staphylococcus aureus [29] = test: Antibacterial activity against Staphylococcus aureus ATCC 29213 assessed as inhibition of visible growth measured after 18 to 24 hrs in presence of 24.3 ug/ml Mg2+ by broth dilution method; assay type: functional; settings: time 18-24 hrs
Staphylococcus aureus [30] = test: Inhibition of biofilm formation Staphylococcus aureus ATCC 29213 assessed as decrease in biofilm formation at 0.78 ug/ml measured after 24 hrs by crystal violet staining assay; assay type: functional
Escherichia coli [31] = test: Drug resistance development in Escherichia coli ATCC 25922 assessed as fold change in MIC measured after 20 passages; assay type: functional
Escherichia coli [32] = test: Antibacterial activity against Escherichia coli ATCC 25922 assessed as reduction in bacterial load at 8 time of MIC measured with in 30 mins by time kill assay; assay type: functional; settings: 0.5 h
Escherichia coli [33] = test: Inhibition of biofilm formation Escherichia coli ATCC 25922 assessed as decrease in biofilm formation at 3.13 ug/ml measured after 24 hrs by crystal violet staining assay; assay type: functional
Klebsiella pneumoniae [34] = test: Antibacterial activity against Klebsiella pneumoniae ATCC 10031 assessed as inhibition of visible growth measured after 18 to 24 hrs in presence of 175.5 ug/ml K+ by broth dilution method; assay type: functional; settings: time 18-24 hrs
[35] = Selectivity ratio, HC50 for hemolytic activity in rabbit RBC to MIC for antibacterial activity against Klebsiella pneumoniae ATCC 14581; assay type: toxicity; settings: rabbit red blood cells
Pseudomonas aeruginosa [36] = test: Antibacterial activity against Pseudomonas aeruginosa ATCC 9027 assessed as inhibition of visible growth measured after 18 to 24 hrs by broth dilution method; assay type: functional; settings: time 18-24 hrs
Staphylococcus aureus [37] = test: Antibacterial activity against methicillin-resistant Staphylococcus aureus N315 assessed as inhibition of visible growth measured after 18 to 24 hrs in presence of 175.5 ug/ml K+ by broth dilution method; assay type: functional; settings: time 18-24 hrs

CCCCCCCCC(=O)NCc1ccc(OCCCCCCNC(=N)N)c(OCCCCCCNC(=N)N)c1
CC50 at 24 h [1]: 27.8 µg/mL (≈ 49.5 µM) | MIC (Staphylococcus aureus [2]): 0.39 µg/mL | Activity (Lipopolysaccharide (LPS) [3]): 56.4% | Activity (Cell membrane [4]): Active | MIC (Staphylococcus aureus [5]): 0.39 µg/mL (≈ 0.694 µM) | MIC (Staphylococcus aureus [6]): 0.39 µg/mL | HC5 ([7]; erythrocyte, 1 h): 64.3 µg/mL | HC50 at 1 h ([7]; rabbit red blood cells): 135 µg/mL | selectivity ratio [8]: 21.6 | MIC (Klebsiella pneumoniae [9]): 1.56 µg/mL (≈ 2.78 µM) | MIC (Klebsiella pneumoniae [10]): 1.56 µg/mL | inhibition at 0.1 µg/mL (Staphylococcus aureus [11]): 34.1% | Activity (Staphylococcus aureus [12]): 36.07% | Activity (Lipopolysaccharide (LPS) [13]): 103% | Activity [14]: Non-Toxic | MIC (Escherichia coli [15]): 1.56 µg/mL (≈ 2.78 µM) | Activity (Staphylococcus aureus [16]): 6.5 log10CFU/ml | Activity (Escherichia coli [17]): 15.04% | MIC (Staphylococcus aureus [18]): 0.39 µg/mL | selectivity ratio [19]: 21.6 | MIC (Klebsiella pneumoniae [20]): 1.56 µg/mL | Activity (Cell membrane [21]): Active | selectivity ratio [22]: 173 | Activity (Cell membrane [23]): Active | selectivity ratio [24]: 21.6 | MIC (Staphylococcus aureus [25]): 0.78 µg/mL (≈ 1.39 µM) | MIC (Staphylococcus aureus [26]): 0.39 µg/mL (≈ 0.694 µM) | Activity (Pseudomonas aeruginosa [27]): 4.69 log10CFU/ml | CC50 at 24 h [28]: 35.2 µg/mL (≈ 62.7 µM) | MIC (Staphylococcus aureus [29]): 0.39 µg/mL | inhibition at 0.78 µg/mL (Staphylococcus aureus [30]): 99.7% | fold change (FC) (Escherichia coli [31]): <4 | Activity (Escherichia coli [32]): 4.56 log10CFU/ml | inhibition at 3.13 µg/mL (Escherichia coli [33]): 106% | MIC (Klebsiella pneumoniae [34]): 0.78 µg/mL | selectivity ratio [35]: 21.6 | MIC (Pseudomonas aeruginosa [36]): 6.25 µg/mL (≈ 11.1 µM) | MIC (Staphylococcus aureus [37]): 0.39 µg/mL

From ChEMBL document CHEMBL5236632, “Membrane-Active Nonivamide Derivatives as Effective Broad-Spectrum Antimicrobials: Rational Design, Synthesis, and Biological Evaluation” (J Med Chem, 2022)
